Measured values published in patent publication US10919902B2, “Hetero-halo inhibitors of histone deacetylase” (Alkermes, Inc., priority 2015, dated 2021).

Each molecule was assayed against recombinant human HDACs (Homo sapiens) (assay: HDAC enzymatic assay). Settings: 5 nM HDAC enzyme, 5 h pre-incubation, 17 h reaction at 25° C.; isoform not given.
Assay type: biochemical
Description: All recombinant human HDACs were purchased from BPS Bioscience. The substrate, FAM-TSRHK(AC)KL-CONH, was synthesized at NanoSyn. Final assay reactions contained 100 mM HEPES (pH 7.5), 50 mM KCl, 0.1% BSA, 0.01% Triton X-100, 1% DMSO, 1 uM substrate and 5 nM HDAC enzyme. Enzyme and compounds were pre-incubated at 25° C. for 5 hours and reactions were initiated by addition of substrate. 10 uL reactions were incubated for 17 hours at 25° C. and terminated by the addition of 40 uL of buffer containing 100 mM HEPES (pH 7.5), 0.1% BSA, 0.01% Triton X-100 and 0.05% SDS. Substrate and product peptides present in each sample were separated electrophoretically using the LabChip 3000 capillary electrophoresis instrument. Change in the relative fluorescence intensity of the substrate and product peaks reflects enzyme activity. Reaction progress was determined as the product to sum ratio (PSR):P/(S+P), where P is the peak height of the product peptide and S is the peak height of the substrate peptide. Reactions were performed in duplicate at 12 concentrations, (3× serial dilutions starting at 30 uM). IC50 values were calculated using a 4 Parameter Logistic Model.

Row | SMILES | IC50
1 | Cn1cc2c(n1)CN(C(=O)Nc1nc(-c3ccc(F)cc3)ccc1N)C2 [Compound 257] | 100 to 500 nM
2 | COCc1cc2c(cn1)CN(C(=O)Nc1nc(-c3ccc(F)cc3)ccc1N)C2 [Compound 243] | 100 to 500 nM

Same assay, conditions: 5 nM HDAC enzyme, 5 h pre-incubation, 17 h reaction at 25° C.; isoform not given; read-out: IC50

Row | SMILES | IC50
3 | CN1CCn2cc(C(=O)Nc3nc(-c4ccccc4)ccc3N)nc2C1 [Compound 206] | 500 to 5000 nM
4 | Nc1ccc(-c2ccc(F)cc2)nc1NC(=O)N1CC2CN(Cc3ccccc3F)CC2C1 (centres unmarked) [Compound 176] | 500 to 5000 nM
5 | COCc1ccc2c(c1)CN(C(=O)Nc1nc(-c3ccc(F)cc3)ccc1N)C2 [Compound 396] | 100 to 500 nM
6 | Nc1ccc(-c2cccnc2)nc1NC(=O)N1CCC2(CCCNC2)C1 (centres unmarked) [Compound 171] | > 5000 nM
7 | COCc1ccc2c(c1)CN(C(=O)Nc1nc(-c3cccnc3)ccc1N)C2 [Compound 393] | 500 to 5000 nM
8 | CC(=O)N1CCC(C(=O)Nc2nn(-c3ccccc3)cc2N)CC1 [Compound 358] | > 5000 nM
9 | CN1CCN(Cc2ccc3c(c2)CN(C(=O)Nc2nn(-c4ccccc4)cc2N)C3)CC1 [Compound 353] | 500 to 5000 nM
10 | Nc1ccc(-c2ccc(F)cc2)nc1NC(=O)N1Cc2cc(CN3CCCC3)cnc2C1 [Compound 155] | 100 to 500 nM
11 | CC(C)Cc1cnc2c(c1)CN(C(=O)Nc1nc(-c3ccc(F)cc3)ccc1N)C2 [Compound 274] | 100 to 500 nM
12 | Nc1ccc(-c2cccnc2)nc1NC(=O)N1Cc2nccnc2C1 [Compound 214] | 500 to 5000 nM
13 | Cn1cc(CN2CCCC3(CCC(C(=O)Nc4nc(-c5ccc(F)cc5)ccc4N)C3)C2)cn1 (centres unmarked) [Compound 223] | > 5000 nM
14 | Cn1ncc2c1CN(C(=O)Nc1nc(-c3ccc(F)cc3)ccc1N)C2 [Compound 258] | 500 to 5000 nM
15 | CN1CC(N2C[C@@H]3C(C(=O)Nc4nc(-c5ccc(F)cc5)ccc4N)[C@@H]3C2)C1 (some centres unmarked) [Compound 241] | > 5000 nM
16 | COc1cc2c(cn1)CN(C(=O)Nc1nc(-c3ccc(F)cc3)ccc1N)C2 [Compound 260] | 100 to 500 nM
17 | CN(C)Cc1ccc2c(c1)CN(C(=O)Nc1nn(-c3ccccc3)cc1N)C2 [Compound 351] | 100 to 500 nM
18 | Nc1ccc(-c2ccco2)nc1NC(=O)N1Cc2ccncc2C1 [Compound 372] | 500 to 5000 nM
19 | Nc1ccc(-c2ccc(F)cc2)nc1NC(=O)N1Cc2cc(N3CCC3)cnc2C1 [Compound 254] | 500 to 5000 nM
20 | CN1CC(CN2C[C@@H]3[C@H](C2)[C@H]3C(=O)Nc2nc(-c3ccc(F)cc3)ccc2N)C1 [Compound 268] | > 5000 nM
21 | Nc1ccc(-c2ccc(F)cc2)nc1NC(=O)N1Cc2cnc(C3CCOCC3)cc2C1 [Compound 240] | 100 to 500 nM
22 | Nc1ccc(-c2ccc(F)cc2)nc1NC(=O)N1Cc2cc(N3CCC3)cnc2C1 [Compound 157] | 100 to 500 nM
23 | CN1CC(C(=O)Nc2nc(-c3ccc(F)cc3)ccc2N)C1 [Compound 204] | > 5000 nM
24 | Nc1ccc(-c2ccccc2)nc1NC(=O)N1CCn2ccnc2C1 [Compound 197] | > 5000 nM
25 | Nc1ccc(-c2ccc(F)cc2)nc1NC(=O)N1Cc2cncnc2C1 [Compound 277] | 500 to 5000 nM
26 | Nc1ccc(-c2cccnc2)nc1NC(=O)c1cn2c(n1)CNCC2 [Compound 219] | > 5000 nM
27 | Nc1ccc(-c2ccco2)nc1NC(=O)N1CC2CN(CCF)CC2C1 (centres unmarked) [Compound 174] | > 5000 nM

Row | SMILES | IC50
28 | CN(C)[C@H]1[C@@H]2CN(C(=O)Nc3nc(-c4ccc(F)cc4)ccc3N)C[C@@H]21 [Compound 242] | > 5000 nM
29 | Nc1cn(-c2ccccc2)nc1NC(=O)N1CCNCC1 [Compound 357] | > 5000 nM
30 | Nc1cn(-c2ccccc2)nc1NC(=O)N1CCN(C2COC2)CC1 [Compound 356] | > 5000 nM
31 | CN1CCc2sc(C(=O)Nc3nc(-c4ccc(F)cc4)ccc3N)nc2C1 [Compound 153] | 100 to 500 nM
32 | COC1CCN(Cc2ccc3c(c2)CN(C(=O)Nc2nc(-c4ccc(F)cc4)ccc2N)C3)C1 (centres unmarked) [Compound 363] | 100 to 500 nM
33 | Nc1ccc(-c2ccc(F)cc2)nc1NC(=O)N1Cc2cnc(N3CCOCC3)cc2C1 [Compound 150] | 100 to 500 nM
34 | Nc1ccc(-c2ccc(F)cc2)nc1NC(=O)N1Cc2cc(CN3CCC(F)(F)C3)cnc2C1 [Compound 273] | 100 to 500 nM
35 | CN(C)Cc1cnc2c(c1)CN(C(=O)Nc1nc(-c3ccc(F)cc3)ccc1N)C2 [Compound 154] | 100 to 500 nM
36 | CN1CCC(N2CCC(C(=O)Nc3nc(-c4ccc(F)cc4)ccc3N)CC2)CC1 [Compound 368] | 500 to 5000 nM
37 | CN1CCN(c2ccc3c(c2)CN(C(=O)Nc2nc(-c4ccc(F)cc4)ccc2N)C3)CC1 [Compound 374] | 100 to 500 nM
38 | CN1CCN(Cc2cccc3c2CN(C(=O)Nc2nc(-c4ccc(F)cc4)ccc2N)C3)CC1 [Compound 178] | > 5000 nM
39 | CN(C)Cc1cnc2c(c1)CN(C(=O)Nc1nc(-c3cccnc3)ccc1N)C2 [Compound 161] | 100 to 500 nM
40 | Nc1ccc(-c2ccccc2)nc1NC(=O)C1CCN(Cc2ccccc2F)CC1 [Compound 379] | > 5000 nM
41 | CN1CCCC2(CCN(C(=O)Nc3nc(-c4cccnc4)ccc3N)C2)C1 (centres unmarked) [Compound 211] | > 5000 nM
42 | CN1CC(CN2CC3CC(C(=O)Nc4nc(-c5ccc(F)cc5)ccc4N)CC3C2)C1 (centres unmarked) [Compound 256] | 500 to 5000 nM
43 | CN1CC2CN(C(=O)Nc3nc(-n4cccn4)ccc3N)CC2C1 (centres unmarked) [Compound 184] | > 5000 nM
44 | Nc1cn(-c2ccccc2)nc1NC(=O)N1CC2CCCC2C1 (centres unmarked) [Compound 384] | > 5000 nM
45 | Nc1ccc(-c2ccc(F)cc2)nc1NC(=O)N1CCC(C(F)(F)F)C1 (centres unmarked) [Compound 390] | 500 to 5000 nM
46 | Nc1ccc(-c2ccc(F)cc2)nc1NC(=O)N1CC2CN(C3CCOCC3)CC2C1 (centres unmarked) [Compound 236] | > 5000 nM
47 | CN1CCN(Cc2ccc3c(c2)CN(C(=O)Nc2nc(-c4ccc(F)cc4)ccc2N)C3)CC1 [Compound 367] | 100 to 500 nM
48 | Nc1ccc(-c2ccc(F)cc2)nc1NC(=O)N1C[C@@H]2[C@H](C1)[C@H]2NC1COC1 [Compound 267] | > 5000 nM
49 | Nc1ccc(-n2cccn2)nc1NC(=O)N1Cc2ccncc2C1 [Compound 369] | 500 to 5000 nM
50 | Nc1ccc(-c2ccccc2)nc1NC(=O)C1CCN(Cc2cccnc2)CC1 [Compound 377] | > 5000 nM
51 | Nc1ccc(-c2ccc(F)cc2)nc1NC(=O)N1CC2CC(N3CC(F)C3)CC2C1 (centres unmarked) [Compound 188] | 500 to 5000 nM
52 | Nc1ccc(-c2ccc(OC(F)F)cc2)nc1NC(=O)N1CCCC1 [Compound 232] | 500 to 5000 nM

Row | SMILES | IC50
53 | CN1CCC(c2ccc3c(c2)CN(C(=O)Nc2nc(-c4ccc(F)cc4)ccc2N)C3)CC1 [Compound 387] | 500 to 5000 nM
54 | CN(C)Cc1ccc(C2CN(C(=O)Nc3nc(-c4ccc(F)cc4)ccc3N)C2)cc1 [Compound 146] | 100 to 500 nM
55 | Nc1ccc(-c2ccc(F)cc2)nc1NC(=O)N1Cc2ccc(CN3CCCC3)cc2C1 [Compound 405] | 100 to 500 nM
56 | Cc1cnc(C(=O)Nc2nc(-c3ccc(F)cc3)ccc2N)s1 [Compound 226] | 100 to 500 nM
57 | Cn1cc(CN2CCC3(CC2)CCN(C(=O)Nc2nc(-c4cccnc4)ccc2N)C3)cn1 [Compound 215] | > 5000 nM
58 | CN1CCC(c2cnc3c(c2)CN(C(=O)Nc2nc(-c4cccs4)ccc2N)C3)CC1 [Compound 250] | 100 to 500 nM
59 | Nc1ccc(-c2cccnc2)nc1NC(=O)N1Cc2cc(F)cnc2C1 [Compound 218] | > 5000 nM
60 | Cc1ccc(C2CN(C(=O)Nc3nc(-c4ccc(F)cc4)ccc3N)C2)cc1 [Compound 170] | 500 to 5000 nM
61 | CN1CCN(C(=O)Nc2nn(-c3ccccc3)cc2N)CC1 [Compound 361] | > 5000 nM
62 | CN1CC(n2cc3c(n2)CN(C(=O)Nc2nc(-c4ccc(F)cc4)ccc2N)C3)C1 [Compound 247] | 100 to 500 nM
63 | Nc1ccc(-c2ccccc2)nc1NC(=O)c1cn2c(n1)CNCC2 [Compound 208] | 500 to 5000 nM
64 | Nc1ccc(-c2ccccc2)nc1NC(=O)C1CCN(C2COC2)CC1 [Compound 381] | > 5000 nM
65 | Nc1ccc(-c2ccccc2)nc1NC(=O)C1CN(c2ccccn2)C1 [Compound 195] | > 5000 nM
66 | Nc1ccc(-c2ccco2)nc1NC(=O)N1CC2CN(C3COC3)CC2C1 (centres unmarked) [Compound 182] | > 5000 nM
67 | CN1CCC2(CC1)CCN(C(=O)Nc1nc(-c3cccnc3)ccc1N)C2 [Compound 210] | > 5000 nM
68 | CN1CC(Cn2ncc3c2CN(C(=O)Nc2nc(-c4ccc(F)cc4)ccc2N)C3)C1 [Compound 244] | 500 to 5000 nM
69 | Nc1ccc(-c2cccnc2)nc1NC(=O)c1nc2c(s1)CCN(CCF)C2 [Compound 164] | 500 to 5000 nM
70 | CN(C)Cc1cnc2c(c1)CN(C(=O)Nc1nc(-c3cccs3)ccc1N)C2 [Compound 145] | 100 to 500 nM
71 | CN1CC(N2CC3CN(C(=O)Nc4nc(-c5ccc(F)cc5)ccc4N)CC3C2)C1 (centres unmarked) [Compound 152] | 500 to 5000 nM
72 | CN1CCc2sc(C(=O)Nc3nc(-c4ccco4)ccc3N)nc2C1 [Compound 163] | 100 to 500 nM
73 | Nc1ccc(-c2ccccc2)nc1NC(=O)N1CCn2cncc2C1 [Compound 212] | > 5000 nM
74 | COC[C@@H]1[C@H]2CN(C(=O)Nc3nc(-c4ccc(F)cc4)ccc3N)C[C@@H]12 [Compound 276] | 500 to 5000 nM
75 | Nc1ccc(-c2ccc(F)cc2)nc1NC(=O)N1CC2CC(N3CCC3)CC2C1 (centres unmarked) [Compound 143] | 500 to 5000 nM
76 | Nc1ccc(-c2cccs2)nc1NC(=O)N1Cc2cc(CN3CCCC3)cnc2C1 [Compound 144] | 100 to 500 nM
77 | Nc1ccc(-c2ccc(OC(F)F)cc2)nc1NC(=O)N1Cc2nccnc2C1 [Compound 228] | 500 to 5000 nM
